# Results taken from patent US11466286B2, “Methods and compositions for conferring and/or enhancing herbicide tolerance using protoporphyrinogen oxidase or variant thereof” (FarmHannong Co., Ltd., priority 2016, dated 2022).
# Columns and labels:
# [1] = molecular target: CyPPO10 (Thermosynechococcus elongatus BP-1 PPO, SEQ ID NO: 2) variant F360M, MBP fusion (Thermosynechococcus vestitus, UniProt Q8DLV2, F360M); experiment: biochemical
# [2] = molecular target: CyPPO10 (Thermosynechococcus elongatus BP-1 PPO, SEQ ID NO: 2), wild type, MBP fusion (Thermosynechococcus vestitus, UniProt Q8DLV2); experiment: PPO inhibition assay; type: biochemical
# [3] = tested on: CyPPO13 (Synechococcus sp. JA-3-3Ab PPO, SEQ ID NO: 4), wild type, MBP fusion; experiment: PPO inhibition assay; type: biochemical; conditions: herbicide 0-5,000 nM, 50 μM substrate
# [4] = molecular target: CyPPO10 (Thermosynechococcus elongatus BP-1 PPO, SEQ ID NO: 2) variant R89A + F360M, MBP fusion (Thermosynechococcus vestitus, UniProt Q8DLV2, F360M/R89A); experiment: biochemical; conditions: herbicide 0-5,000 nM, 50 μM substrate
# [5] = molecular target: CyPPO10 (Thermosynechococcus elongatus BP-1 PPO, SEQ ID NO: 2) variant F360I, MBP fusion (Thermosynechococcus vestitus, UniProt Q8DLV2, F360I); experiment: PPO inhibition assay; type: biochemical
# [6] = molecular target: CyPPO10 (Thermosynechococcus elongatus BP-1 PPO, SEQ ID NO: 2) variant R89A + F360I, MBP fusion (Thermosynechococcus vestitus, UniProt Q8DLV2, F360I/R89A); experiment: biochemical
# [7] = molecular target: T1, CyPPO10 (Thermosynechococcus elongatus BP-1 protoporphyrinogen oxidase, wild type, SEQ ID NO: 2), MBP fusion (Thermosynechococcus vestitus, UniProt Q8DLV2); experiment: Michaelis-Menten kinetics of purified PPO; type: biochemical; conditions: protoporphyrinogen IX oxidation, room temperature, pH 8.0
# T1 construct: kinetics with protoporphyrinogen IX
# Protocol: (§1) The enzyme activities of PPO protein and PPO protein variants were examined, and inhibition assay by PPO-inhibiting herbicides was conducted. It was confirmed that the PPO protein has low water-solubility, but in case of being expressed as a fusion protein with MBP (maltose binding protein) (MBP-PPO), the PPO protein is able to be stably expressed as water-soluble form. Therefore, the wild type and variant proteins which were expressed in the form of fusion protein with MBP were used in the present test (refer to FIG. 4).
# At first, a substrate of PPO protein, Protoporphyrinogen IX was synthesized. This process was performed in the space where nitrogen gas is streamed. […]
# Two hundred microliters (200 μl) of reaction mixture containing a purified PPO protein were placed in 96 well plates, and preincubated for 30 min at room temperature to reduce the oxygen concentration by the reaction of glucose oxidase-catalase. […] The reaction proceeded at room temperature for 30 min and the fluorescence of protoporphyrin IX was measured using Microplate reader (Sense, Hidex) (excitation: 405 nm; emission: 633 nm). […] To this, 2.7N HCl was added, and the absorbance at 408 nm was measured. A standard curve was generated using standard protoporphyrin IX, and the PPO activity was measured by calibration of protoporphyrin IX using the standard curve of protoporphyrin IX. […]
# [8] = tested on: CyPPO13 (Synechococcus sp. JA-3-3Ab protoporphyrinogen oxidase, wild type, SEQ ID NO: 4), MBP fusion; experiment: Michaelis-Menten kinetics of purified PPO; type: biochemical; conditions: protoporphyrinogen IX oxidation, room temperature, pH 8.0
# Amaranthus PPO1 = experiment: Michaelis-Menten kinetics of PPO (plant control); type: biochemical; conditions: protoporphyrinogen IX oxidation
# [9] = molecular target: A. thaliana PPO1 (AtPPO1) (Arabidopsis thaliana, UniProt P55826); experiment: Michaelis-Menten kinetics of PPO (plant control); type: biochemical; conditions: protoporphyrinogen IX oxidation
# [10] = tested on: soybean transformed with CyPPO10 A167L+F360M; experiment: Herbicide tolerance of soybean; type: in vivo; conditions: T1, 150 μM saflufenacil spray, 5 days
# [11] = tested on: BT3 (ΔPPO) E. coli with CyPPO10m-6 (E225G, G258S, Q266L, T336I, V356F, F360M, A364D, R406G, W419R; SEQ ID NO: 131); experiment: Growth of BT3 with error-prone PCR mutant of CyPPO10; type: cell-based; conditions: up to 200 μM herbicide
# [12] = tested on: CyPPO13 (Synechococcus sp. JA-3-3Ab PPO, SEQ ID NO: 4) variant F373L, MBP fusion; experiment: PPO inhibition assay; type: biochemical; conditions: herbicide 0-5,000 nM, 50 μM substrate
# Protocol: as §1
# (§2) At first, a substrate of PPO protein, Protoporphyrinogen IX was synthesized. This process was performed in the space where nitrogen gas is streamed. 6 mg of protoporphyrin IX was dissolved in 20% (v/v) EtOH 20 ml, and stirred under dark condition for 30 minutes. The obtained protoporphyrinogen IX solution was put into a 15 ml screw tube in an amount of 800 and flushed with nitrogen gas for 5 minutes. To this, 1 g of sodium amalgam was added and vigorous shaking was performed for 2 minutes. The lid was open to exhaust hydrogen gas in the tube. Thereafter, the lid was closed and incubated for 3 minutes. The […] was filtered using syringe and cellulose membrane filter. To 600 μl of the obtained […], 2M MOPS [3-(N-morpholino)propanesulfonic acid] was added in an amount of approximately 300 thereby adjusting pH to 8.0. To determine the enzyme activity of PPO protein, a reaction mixture was prepared with the following composition (based on 10 ml): 50 mM Tris-Cl (pH 8.0); 50 mM NaCl; 0.04% (v/v) Tween 20; 40 mM glucose (0.072 g); 5 units glucose oxidase (16.6 mg); and 10 units catalase (1 μl).
# (§3) Two hundred microliters (200 μl) of reaction mixture containing a purified PPO protein were placed in 96 well plates, and preincubated for 30 min at room temperature to reduce the oxygen concentration by the reaction of glucose oxidase-catalase. The mineral oil was layered and then the reaction was initiated by adding the substrate, […], to a final concentration of 50 μM. The reaction proceeded at room temperature for 30 min and the fluorescence of protoporphyrin IX was measured using Microplate reader (Sense, Hidex) (excitation: 405 nm; emission: 633 nm). To calculate the PPO enzyme activity, protoporphyrinogen IX solution was kept open in the air to oxidize the solution (overnight). To this, 2.7N HCl was added, and the absorbance at 408 nm was measured. A standard curve was generated using standard protoporphyrin IX, and the PPO activity was measured by calibration of protoporphyrin IX using the standard curve of protoporphyrin IX.
# (§4) The final concentration of each herbicide was as follows: […]
# [13] = tested on: CyPPO13 (Synechococcus sp. JA-3-3Ab PPO, SEQ ID NO: 4) variant F373I, MBP fusion; experiment: PPO inhibition assay; type: biochemical; conditions: herbicide 0-5,000 nM, 50 μM substrate
# Protocol: as §1, §2, §3, §4
# [14] = tested on: CyPPO13 (Synechococcus sp. JA-3-3Ab PPO, SEQ ID NO: 4) variant F373M, MBP fusion; experiment: PPO inhibition assay; type: biochemical; conditions: herbicide 0-5,000 nM, 50 μM substrate
# A. thaliana = experiment: Herbicide spray on A. thaliana transformants, injury level judged at the 7th day; type: in vivo, Arabidopsis thaliana; conditions: A. thaliana transformants T2, tiafenacil 25 μM spray
# CyPPO10 = experiment: PPO enzyme activity and IC50 by herbicides, CyPPO10 wild type and variants (MBP-PPO fusion); type: biochemical, Thermosynechococcus elongatus BP-1; conditions: PPO enzyme activity of CyPPO10 protein, wild type = 100
# In short: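 Activity was read as protoporphyrin IX fluorescence (405/633 nm), calibrated with a protoporphyrin IX standard curve, after 30 min at room temperature with 50 μM substrate under mineral oil. The buffer was 50 mM Tris-Cl pH 8.0 with glucose oxidase/catalase and a 30 min preincubation. Enzymes were purified MBP-PPO fusions of CyPPO10 or CyPPO13, wild type and variants, expressed in E. coli.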
# Chain of CyPPO10 (Thermosynechococcus elongatus BP-1 PPO, SEQ ID NO: 2) variant R89A + F360M, MBP fusion (Q8DLV2 entry or part of it R89A/F360M): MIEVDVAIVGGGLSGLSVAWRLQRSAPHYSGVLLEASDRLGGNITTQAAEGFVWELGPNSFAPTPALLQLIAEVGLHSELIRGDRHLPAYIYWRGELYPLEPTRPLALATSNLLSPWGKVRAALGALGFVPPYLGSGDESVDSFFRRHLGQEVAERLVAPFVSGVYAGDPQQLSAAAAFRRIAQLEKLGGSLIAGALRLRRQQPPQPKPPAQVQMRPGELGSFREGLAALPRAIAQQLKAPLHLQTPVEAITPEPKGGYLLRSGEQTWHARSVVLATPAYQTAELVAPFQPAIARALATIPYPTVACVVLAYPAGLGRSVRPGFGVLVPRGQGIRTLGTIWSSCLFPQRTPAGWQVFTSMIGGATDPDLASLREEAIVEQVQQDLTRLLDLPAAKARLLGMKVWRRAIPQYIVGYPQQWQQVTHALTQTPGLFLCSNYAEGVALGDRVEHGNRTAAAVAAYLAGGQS
# Chain of CyPPO10 (Thermosynechococcus elongatus BP-1 PPO, SEQ ID NO: 2) variant F360I, MBP fusion (Q8DLV2 entry or part of it F360I): as the sequence (Q8DLV2 entry or part of it R89A/F360M) above, with A89R, M360I counted along it
# Chain of CyPPO10 (Thermosynechococcus elongatus BP-1 PPO, SEQ ID NO: 2) variant R89A + F360I, MBP fusion (Q8DLV2 entry or part of it R89A/F360I): as the sequence (Q8DLV2 entry or part of it R89A/F360M) above, with M360I counted along it
# Chain of CyPPO10 (Thermosynechococcus elongatus BP-1 PPO, SEQ ID NO: 2) variant F360M, MBP fusion (Q8DLV2 entry or part of it F360M): as the sequence (Q8DLV2 entry or part of it R89A/F360M) above, with A89R counted along it
# T1 sequence (Q8DLV2 1-467): as the sequence (Q8DLV2 entry or part of it R89A/F360M) above, with A89R, M360F counted along it
# Chain of CyPPO10 (Thermosynechococcus elongatus BP-1 PPO, SEQ ID NO: 2), wild type, MBP fusion (Q8DLV2 1-467): as the sequence (Q8DLV2 entry or part of it R89A/F360M) above, with A89R, M360F counted along it
# Chain of A. thaliana PPO1 (AtPPO1) (P55826 35-537): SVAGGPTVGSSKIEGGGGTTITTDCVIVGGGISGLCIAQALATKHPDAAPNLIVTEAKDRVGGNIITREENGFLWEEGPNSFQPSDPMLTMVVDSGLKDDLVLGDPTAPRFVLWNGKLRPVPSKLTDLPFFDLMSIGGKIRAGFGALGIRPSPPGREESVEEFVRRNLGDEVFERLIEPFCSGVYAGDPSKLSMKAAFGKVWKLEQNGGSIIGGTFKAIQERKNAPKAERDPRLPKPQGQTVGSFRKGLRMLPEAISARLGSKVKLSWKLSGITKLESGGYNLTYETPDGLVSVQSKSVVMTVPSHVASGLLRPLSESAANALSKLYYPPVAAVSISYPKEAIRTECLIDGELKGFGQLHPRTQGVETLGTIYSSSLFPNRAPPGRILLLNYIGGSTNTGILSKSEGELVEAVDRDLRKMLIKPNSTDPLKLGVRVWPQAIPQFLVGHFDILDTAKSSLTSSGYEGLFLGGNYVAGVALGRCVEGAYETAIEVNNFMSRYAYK
molecule,measurement,setting,value
C=CCOC(=O)C(C)(C)OC(=O)c1cc(-n2c(=O)cc(C(F)(F)F)n(C)c2=O)ccc1Cl [Butafenacil],IC50,[1],24 nM
same,IC50,[2],8 nM
same,IC50,[3],37 nM
same,IC50,[4],674 nM
same,IC50,[5],268 nM
same,IC50,[6],1320 nM
C=Cc1c2[nH]c(c1C)Cc1[nH]c(c(CCC(=O)O)c1C)Cc1[nH]c(c(C)c1CCC(=O)O)Cc1[nH]c(c(C)c1C=C)C2 [Protoporphyrinogen IX],Vmax,[7],949.1 ± 64 μM mg protein^−1 min^−1
same,Vmax,[8],341.4 ± 14 μM mg protein^−1 min^−1
same,Vmax,Amaranthus PPO1,57 ± 7 μM mg protein^−1 min^−1
same,Vmax,[9],134.4 ± 19 μM mg protein^−1 min^−1
CC(C)N(C)S(=O)(=O)NC(=O)c1cc(-n2c(=O)cc(C(F)(F)F)n(C)c2=O)c(F)cc1Cl [Saflufenacil],damage level,[10],no damage
same,cell viability,[11],cell viability similar to that of cells with wild type CyPPO10
same,IC50,[12],1470 nM
same,IC50,[13],1480 nM
same,IC50,[14],481 nM
"CyPPO10 A167C + F360I: CyPPO10 (SEQ ID NO: 2) PPO variant (protein, Synthetic CyPPO10) MIEVDVAIVGGGLSGLSVAWRLQRSAPHYSGVLLEASDRLGGNITTQAAEGFVWELGPNSFAPTPALLQLIAEVGLHSELIRGDRHLPRYIYWRGELYPLEPTRPLALATSNLLSPWGKVRAALGALGFVPPYLGSGDESVDSFFRRHLGQEVAERLVAPFVSGVYCGDPQQLSAAAAFRRIAQLEKLGGSLIAGALRLRRQQPPQPKPPAQVQMRPGELGSFREGLAALPRAIAQQLKAPLHLQTPVEAITPEPKGGYLLRSGEQTWHARSVVLATPAYQTAELVAPFQPAIARALATIPYPTVACVVLAYPAGLGRSVRPGFGVLVPRGQGIRTLGTIWSSCLFPQRTPAGWQVFTSIIGGATDPDLASLREEAIVEQVQQDLTRLLDLPAAKARLLGMKVWRRAIPQYIVGYPQQWQQVTHALTQTPGLFLCSNYAEGVALGDRVEHGNRTAAAVAAYLAGGQS",Average injury index,A. thaliana,2 (Over 20% and less than 30% of the plant was scorched)
same,Activity (%),CyPPO10,48%
